Here are results for 7 compounds from EP4310072A1, “ULTRAVIOLET ABSORBER, COMPOSITION, COSMETIC PRODUCT, AND PROCESS FOR PREPARING COSMETIC PRODUCT” (MFCI (Huanggang) Co., Ltd., priority 2021, dated 2023).

Assay type in all cases: physicochemical
Data set [1] in a line: Particle size testing by laser diffraction (Malvern MS2000 laser particle size analyzer, dispersant water). Particulars: for Particle size distribution d(0.1) (integer) / Particle size distribution d(0.9) (integer): rounded to integer, Tables 14 and 16; for αd5: Vd5/Vd100, distribution coefficient of particles with a particle size of 5 µm; for αd10: Vd10/Vd100, distribution coefficient of 10 µm particles; for Consistency / Span (β) / Specific surface area / Surface area-average particle size D[3,2] / Volume-average particle size D[4,3]: laser diffraction, dispersant water; for d(0.9): maximum particle size, cumulative distribution 90%; for d(0.5): median particle size, cumulative distribution 50%; for d(0.1): minimum particle size, cumulative distribution 10%. The protocol: The particle size distribution and characteristics of the ultraviolet absorber described herein, such as the minimum particle size d(0.1), the d(0.9) and the consistency are determined by a laser diffraction method, and determination conditions are as follows: • particle size analyzer: Malvern MS2000 laser particle size analyzer; • name of an injector: Hydro 2000MU (A); • analysis mode: general; • particle size range: 0.02-2000 µm; • name of a dispersant: water.

A short description of data set [2]: First dissolution experiment: sample stirred into the oil phase of an SPF 25 sunscreen oil, 3% DHHB. As to conditions: added concentration 3%, 25°C, stirring rate 150 r/min. The protocol:
In this dissolution experiment, the agglomeration degree of the ultraviolet absorbers in the above examples and comparative examples was evaluated, and each sample of a certain mass was added into an oil phase and stirred at room temperature (25°C) at a stirring rate of 150 r/min for dissolution. The dissolution experiment was carried out on raw materials for preparation of a sunscreen oil with a sun protection factor (SPF) value of 25. Table 13 Raw material table
Except that DHHB is a solid, all other components are liquid oils. A production process includes: sequentially adding various components into an oil pot, and enabling a stirring function until the components are completely dissolved. Table 14 Sample property test result table

Data set [3] is described as follows: Second dissolution experiment: sample stirred into the oil phase of an SPF 25 sunscreen oil, 6% DHHB. Particulars: for increase rate of dissolution time: added concentration 6% versus 3%; for Sample dissolution time: added concentration 6%, 25°C, stirring rate 150 r/min, oil phase. The protocol: In this dissolution experiment, the agglomeration degree of the ultraviolet absorbers in the above examples and comparative examples was evaluated, and each sample of a certain mass was added into an oil phase and stirred at room temperature (25°C) at a stirring rate of 150 r/min for dissolution. The dissolution experiment was carried out on raw materials for preparation of a sunscreen oil with an SPF value of 25. Table 15 Raw material table
Except that DHHB is a solid, all other components are liquid oils. A production process includes: sequentially adding various components into an oil pot, and enabling a stirring function until the components are completely dissolved. Table 16 Sample property test result table

As to `CCCCCCOC(=O)c1ccccc1C(=O)c1ccc(N(CC)CC)cc1O` [Comparative Example 2, reference compound], in data set [1], the “Particle size distribution d(0.1) (integer)” value is recorded as 850 (±20) and the Particle size distribution d(0.9) (integer) was determined as 1000 µm. Also, the Sample dissolution time in data set [2] is reported as 134 min. In addition, in data set [3], the “increase rate of dissolution time” value was “about 50%” and the Sample dissolution time is on record as 202 min.

For the compound `CCCCCCOC(=O)c1ccccc1C(=O)c1ccc(N(CC)CC)cc1O` [Comparative Example 1], in data set [1], the “difference between D[3,2] and D[4,3]” value turned out to be 128.616 µm; the αd5 amounted to 0.005; the αd10 was 0.122; the Consistency was 2.44. Further, in data set [1], the “Span (β)” value turned out to be 10.995, the Specific surface area was 0.258 m^2/g, the “Surface area-average particle size D[3,2]” value was determined as 23.263 µm and the “Volume-average particle size D[4,3]” value is recorded as 151.879 µm. In addition, in data set [1], the “d(0.9)” value came to 518.950 µm, the “d(0.5)” value is given as 51.970 µm, the “d(0.1)” value was 10.517 µm and the Particle size distribution d(0.9) (integer) is 519 µm. In data set [1] (in µm), the “Particle size distribution d(0.1) (integer)” value was 11. The compound further returned a Sample dissolution time in data set [2] of 151 min. Besides, in data set [3], the “increase rate of dissolution time” value is on record as “about 38%” and the Sample dissolution time amounted to 208 min.

In the case of `CCCCCCOC(=O)c1ccccc1C(=O)c1ccc(N(CC)CC)cc1O` [Example 1, 2-(4-N,N-diethylamino-2-hydroxybenzoyl) hexyl benzoate], in data set [1], the “difference between D[3,2] and D[4,3]” value was 11.727 µm; the αd5 was 0.0160; the αd10 was 0.111; the Consistency is on record as 0.638. In data set [1], the “Span (β)” value turned out to be 2.008, the Specific surface area came out at 0.331 m^2/g, the “Surface area-average particle size D[3,2]” value was 18.113 µm and the “Volume-average particle size D[4,3]” value worked out at 29.840 µm. Also, in data set [1], the “d(0.9)” value turned out to be 57.575 µm, the “d(0.5)” value is on record as 23.866 µm, the “d(0.1)” value was 9.647 µm and the Particle size distribution d(0.9) (integer) came out at 58 µm.

In the case of `CCCCCCOC(=O)c1ccccc1C(=O)c1ccc(N(CC)CC)cc1O` [Example 5, 2-(4-N,N-diethylamino-2-hydroxybenzoyl) hexyl benzoate], in data set [1], the “difference between D[3,2] and D[4,3]” value was 21.881 µm; the αd5 is 0.037; the αd10 is reported as 0.095; the Consistency came out at 0.596. Moreover, in data set [1], the “Span (β)” value worked out at 1.944, the Specific surface area is reported as 0.281 m^2/g, the “Surface area-average particle size D[3,2]” value worked out at 21.390 µm and the “Volume-average particle size D[4,3]” value is 43.271 µm. In data set [1], the “d(0.9)” value is on record as 43.271 µm, the “d(0.5)” value came to 21.390 µm, the “d(0.1)” value stood at 10.747 µm and the Particle size distribution d(0.9) (integer) was 43 µm. Moreover, the “Particle size distribution d(0.1) (integer)” value in data set [1] (in µm) was found to be 10. For the same compound, in data set [2], the Sample dissolution time is recorded as < 5 min. Further, the Sample dissolution time in data set [3] is < 5 min.

With `CCCCCCOC(=O)c1ccccc1C(=O)c1ccc(N(CC)CC)cc1O` [Example 3, 2-(4-N,N-diethylamino-2-hydroxybenzoyl) hexyl benzoate], in data set [1], the “difference between D[3,2] and D[4,3]” value turned out to be 17.543 µm; the αd5 worked out at 0.019; the αd10 was found to be 0.107; the Consistency was 0.691. Moreover, in data set [1], the “Span (β)” value worked out at 2.23, the Specific surface area stood at 0.295 m^2/g, the “Surface area-average particle size D[3,2]” value is on record as 20.356 µm and the “Volume-average particle size D[4,3]” value was 37.899 µm. In data set [1], the “d(0.9)” value worked out at 77.626 µm, the “d(0.5)” value came out at 30.410 µm, the “d(0.1)” value is 9.803 µm and the Particle size distribution d(0.9) (integer) is 78 µm. The “Particle size distribution d(0.1) (integer)” value in data set [1] (in µm) was determined as 10. In data set [2], the Sample dissolution time is reported as < 5 min. Also, the Sample dissolution time in data set [3] was < 5 min.

`CCCCCCOC(=O)c1ccccc1C(=O)c1ccc(N(CC)CC)cc1O` [Example 4, 2-(4-N,N-diethylamino-2-hydroxybenzoyl) hexyl benzoate]: in data set [1], the “difference between D[3,2] and D[4,3]” value is 11.215 µm; the αd5 is recorded as 0.002; the αd10 is 0.074; the Consistency came out at 0.62. In data set [1], the “Span (β)” value came out at 1.998, the Specific surface area was 0.284 m^2/g, the “Surface area-average particle size D[3,2]” value was 21.149 µm and the “Volume-average particle size D[4,3]” value came out at 32.364 µm. Moreover, in data set [1], the “d(0.9)” value was 62.903 µm, the “d(0.5)” value is 25.939 µm, the “d(0.1)” value was 11.066 µm and the Particle size distribution d(0.9) (integer) was 63 µm. Also, the “Particle size distribution d(0.1) (integer)” value in data set [1] (in µm) was found to be 11. In data set [2], the Sample dissolution time was < 5 min. In data set [3], the Sample dissolution time is given as < 5 min.

Regarding `CCCCCCOC(=O)c1ccccc1C(=O)c1ccc(N(CC)CC)cc1O` [Example 2, 2-(4-N,N-diethylamino-2-hydroxybenzoyl) hexyl benzoate], in data set [1], the “difference between D[3,2] and D[4,3]” value stood at 8.865 µm; the αd5 is 0.006; the αd10 amounted to 0.104; the Consistency came out at 0.578. Besides, in data set [1], the “Span (β)” value was 1.869, the Specific surface area came out at 0.325 m^2/g, the “Surface area-average particle size D[3,2]” value was found to be 18.463 µm and the “Volume-average particle size D[4,3]” value is on record as 27.328 µm. In addition, in data set [1], the “d(0.9)” value is 51.867 µm, the “d(0.5)” value turned out to be 22.470 µm, the “d(0.1)” value was 9.862 µm and the Particle size distribution d(0.9) (integer) is 52 µm. Moreover, the “Particle size distribution d(0.1) (integer)” value in data set [1] (in µm) is reported as 10. Besides, in data set [2], the Sample dissolution time was < 5 min. Besides, the Sample dissolution time in data set [3] was < 5 min.
